Results from ChEMBL document CHEMBL4699602, “Stapled and Xenopus Glucagon-Like Peptide 1 (GLP-1)-Based Dual GLP-1/Gastrin Receptor Agonists with Improved Metabolic Benefits in Rodent Models of Obesity and Diabetes” (J Med Chem, 2020).
Where a SMILES comes first, the peptide text is derived from it. [ ]: non-standard residue; d: D form. ξ: configuration not given here. αMeH = C[C@](N)(Cc1c[nH]cn1)C(=O)O; Thr(3ξ) = CC(O)[C@H](N)C(=O)O; Aib = CC(C)(N)C(=O)O

Each compound was assayed against Glucagon-like peptide 1 receptor (Homo sapiens, UniProt P43220) (assay: Agonist activity at human GLP-1R expressed in HEK293 cells assessed as stimulation of cAMP accumulation incubated for 20 mins).
Glucagon-like peptide 1 receptor, sequence (P43220 whole entry): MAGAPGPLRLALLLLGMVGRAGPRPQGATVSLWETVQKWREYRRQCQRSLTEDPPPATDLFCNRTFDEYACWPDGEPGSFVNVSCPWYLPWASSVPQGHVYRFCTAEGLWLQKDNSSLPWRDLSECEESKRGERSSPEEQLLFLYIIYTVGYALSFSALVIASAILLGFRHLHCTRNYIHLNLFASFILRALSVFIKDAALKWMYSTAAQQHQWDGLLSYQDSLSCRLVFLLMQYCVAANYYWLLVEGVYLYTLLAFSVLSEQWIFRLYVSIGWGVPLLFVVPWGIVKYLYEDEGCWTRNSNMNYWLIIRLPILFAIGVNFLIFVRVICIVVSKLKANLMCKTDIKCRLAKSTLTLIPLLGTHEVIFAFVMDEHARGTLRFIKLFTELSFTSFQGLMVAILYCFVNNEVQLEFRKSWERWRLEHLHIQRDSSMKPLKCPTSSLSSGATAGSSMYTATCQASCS
Format: functional, cell-based
Compound `CC[C@H](C)[C@H](NC(=O)[C@H](CC(C)C)NC(=O)[C@H](CS)NC(=O)[C@H](CCC(=O)O)NC(=O)[C@@H](NC(=O)[C@H](Cc1ccccc1)NC(=O)[C@H](CCC(=O)O)NC(=O)[C@H](CCCCN)NC(=O)[C@H](C)NC(=O)[C@H](CS)NC(=O)[C@H](CCC(=O)O)NC(=O)[C@H](CCC(=O)O)NC(=O)[C@H](CCC(=O)O)NC(=O)[C@H](CC(C)C)NC(=O)[C@H](Cc1ccc(O)cc1)NC(=O)[C@H](CCC(=O)O)NC(=O)[C@@H](NC(=O)[C@@H](NC(=O)[C@H](CC(=O)O)NC(=O)[C@H](CC(N)=O)NC(=O)[C@@H](NC(=O)[C@H](Cc1ccc(O)cc1)NC(=O)[C@@H](NC(=O)CNC(=O)[C@H](CCC(=O)O)NC(=O)C(C)(C)NC(=O)[C@@H](N)Cc1c[nH]cn1)[C@@H](C)O)[C@@H](C)O)C(C)C)[C@@H](C)O)[C@@H](C)CC)C(=O)N[C@@H](CCCCN)C(=O)NCC(=O)N[C@@H](CCCCN)C(N)=O` (HELM PEPTIDE1{H.[Aib].E.G.T.Y.T.N.D.V.T.E.Y.L.E.E.E.C.A.K.E.F.I.E.C.L.I.K.G.K.[am]}$$$$V2.0) has an EC50 of 330 pM. “H-[αMeH]AEGTYTNDVTCYLEEEACKEFIEWLIKGKPSSGAPPSKKKKKK-NH2 (cysteines drawn unpaired)” gave an EC50 of 110 pM. In the case of `CC[C@H](C)[C@H](NC(=O)[C@H](CS)NC(=O)[C@H](Cc1c[nH]c2ccccc12)NC(=O)[C@H](CCC(=O)O)NC(=O)[C@@H](NC(=O)[C@H](Cc1ccccc1)NC(=O)[C@H](CCC(=O)O)NC(=O)[C@H](CCCCN)NC(=O)[C@H](CS)NC(=O)[C@H](C)NC(=O)[C@H](CCC(=O)O)NC(=O)[C@H](CCC(=O)O)NC(=O)[C@H](CCC(=O)O)NC(=O)[C@H](CC(C)C)NC(=O)[C@H](Cc1ccc(O)cc1)NC(=O)[C@H](CCC(=O)O)NC(=O)[C@@H](NC(=O)[C@@H](NC(=O)[C@H](CC(=O)O)NC(=O)[C@H](CC(N)=O)NC(=O)[C@@H](NC(=O)[C@H](Cc1ccc(O)cc1)NC(=O)[C@@H](NC(=O)CNC(=O)[C@H](CCC(=O)O)NC(=O)C(C)(C)NC(=O)[C@@H](N)Cc1c[nH]cn1)[C@@H](C)O)[C@@H](C)O)C(C)C)[C@@H](C)O)[C@@H](C)CC)C(=O)N[C@@H](CCCCN)C(=O)NCC(=O)N[C@@H](CCCCN)C(N)=O` (HELM PEPTIDE1{H.[Aib].E.G.T.Y.T.N.D.V.T.E.Y.L.E.E.E.A.C.K.E.F.I.E.W.C.I.K.G.K.[am]}$$$$V2.0), the EC50 is reported as 680 pM. `CC[C@H](C)[C@H](NC(=O)[C@H](CC(C)C)NC(=O)[C@H](Cc1c[nH]c2ccccc12)NC(=O)[C@H](CCC(=O)O)NC(=O)[C@@H](NC(=O)[C@H](CS)NC(=O)[C@H](CCC(=O)O)NC(=O)[C@H](CCCCN)NC(=O)[C@H](C)NC(=O)[C@H](C)NC(=O)[C@H](CCC(=O)O)NC(=O)[C@H](CCC(=O)O)NC(=O)[C@H](CCC(=O)O)NC(=O)[C@H](CC(C)C)NC(=O)[C@H](Cc1ccc(O)cc1)NC(=O)[C@H](CCC(=O)O)NC(=O)[C@@H](NC(=O)[C@@H](NC(=O)[C@H](CC(=O)O)NC(=O)[C@H](CC(N)=O)NC(=O)[C@@H](NC(=O)[C@H](Cc1ccc(O)cc1)NC(=O)[C@@H](NC(=O)CNC(=O)[C@H](CCC(=O)O)NC(=O)C(C)(C)NC(=O)[C@@H](N)Cc1c[nH]cn1)[C@@H](C)O)[C@@H](C)O)C(C)C)[C@@H](C)O)[C@@H](C)CC)C(=O)N[C@@H](CCCCN)C(=O)N[C@@H](CS)C(=O)N[C@@H](CCCCN)C(N)=O` (HELM PEPTIDE1{H.[Aib].E.G.T.Y.T.N.D.V.T.E.Y.L.E.E.E.A.A.K.E.C.I.E.W.L.I.K.C.K.[am]}$$$$V2.0) was tested, and the EC50 was 450 pM. With “H-H[Aib]EGTY[Thr(3ξ)]NDV[Thr(3ξ)]EYLEECAAKEFICWLIKGKPSSGAPPSKKKKKK-NH2 (cysteines drawn unpaired)” the EC50 was 73 pM. Compound `CC[C@H](C)[C@H](NC(=O)[C@H](CC(C)C)NC(=O)[C@H](Cc1c[nH]c2ccccc12)NC(=O)[C@H](CCC(=O)O)NC(=O)[C@H](CS)NC(=O)[C@H](Cc1ccccc1)NC(=O)[C@H](CCC(=O)O)NC(=O)[C@H](CCCCN)NC(=O)[C@H](C)NC(=O)[C@H](C)NC(=O)[C@H](CCC(=O)O)NC(=O)[C@H](CCC(=O)O)NC(=O)[C@H](CCC(=O)O)NC(=O)[C@H](CC(C)C)NC(=O)[C@H](Cc1ccc(O)cc1)NC(=O)[C@H](CCC(=O)O)NC(=O)[C@@H](NC(=O)[C@@H](NC(=O)[C@H](CC(=O)O)NC(=O)[C@H](CC(N)=O)NC(=O)[C@@H](NC(=O)[C@H](Cc1ccc(O)cc1)NC(=O)[C@@H](NC(=O)CNC(=O)[C@H](CCC(=O)O)NC(=O)C(C)(C)NC(=O)[C@@H](N)Cc1c[nH]cn1)[C@@H](C)O)[C@@H](C)O)C(C)C)[C@@H](C)O)C(=O)N[C@@H](CCCCN)C(=O)NCC(=O)N[C@@H](CS)C(=O)N1CCC[C@H]1C(=O)N[C@@H](CO)C(=O)N[C@@H](CO)C(=O)NCC(=O)N[C@@H](C)C(=O)N1CCC[C@H]1C(=O)N1CCC[C@H]1C(=O)N1CCC[C@H]1C(=O)N[C@@H](CO)C(N)=O` (HELM PEPTIDE1{H.[Aib].E.G.T.Y.T.N.D.V.T.E.Y.L.E.E.E.A.A.K.E.F.C.E.W.L.I.K.G.C.P.S.S.G.A.P.P.P.S.[am]}$$$$V2.0) has an EC50 of 210 pM. With “H-H[Aib]EGTYTNDVTEYLEEEAACEFIEWLCKGKPSSGAPPSKKKKKK-NH2 (cysteines drawn unpaired)” the EC50 was 230 pM. Compound “H-H[Aib]EGTYTNDVTEYLECEAAKEFCEWLIKGKPSSGAPPSKKKKKK-NH2 (cysteines drawn unpaired)” has an EC50 of 120 pM. `CC[C@H](C)[C@H](NC(=O)[C@H](CC(C)C)NC(=O)[C@H](CS)NC(=O)[C@H](CCC(=O)O)NC(=O)[C@@H](NC(=O)[C@H](Cc1ccccc1)NC(=O)[C@H](CCC(=O)O)NC(=O)[C@H](CCCCN)NC(=O)[C@H](C)NC(=O)[C@H](CS)NC(=O)[C@H](CCC(=O)O)NC(=O)[C@H](CCC(=O)O)NC(=O)[C@H](CCC(=O)O)NC(=O)[C@H](CC(C)C)NC(=O)[C@H](Cc1ccc(O)cc1)NC(=O)[C@H](CCC(=O)O)NC(=O)[C@@H](NC(=O)[C@@H](NC(=O)[C@H](CC(=O)O)NC(=O)[C@H](CC(N)=O)NC(=O)[C@@H](NC(=O)[C@H](Cc1ccc(O)cc1)NC(=O)[C@@H](NC(=O)CNC(=O)[C@H](CCC(=O)O)NC(=O)C(C)(C)NC(=O)[C@@H](N)Cc1c[nH]cn1)[C@@H](C)O)[C@@H](C)O)C(C)C)[C@@H](C)O)[C@@H](C)CC)C(=O)N[C@@H](CCCCN)C(=O)NCC(=O)N[C@@H](CCCCN)C(=O)N1CCC[C@H]1C(=O)N[C@@H](CO)C(=O)N[C@@H](CO)C(=O)NCC(=O)N[C@@H](C)C(=O)N1CCC[C@H]1C(=O)N1CCC[C@H]1C(=O)N1CCC[C@H]1C(=O)N[C@@H](CO)C(N)=O` (HELM PEPTIDE1{H.[Aib].E.G.T.Y.T.N.D.V.T.E.Y.L.E.E.E.C.A.K.E.F.I.E.C.L.I.K.G.K.P.S.S.G.A.P.P.P.S.[am]}$$$$V2.0) gave an EC50 of 130 pM. `CC[C@H](C)[C@H](NC(=O)[C@H](CC(C)C)NC(=O)[C@H](Cc1c[nH]c2ccccc12)NC(=O)[C@H](CCC(=O)O)NC(=O)[C@@H](NC(=O)[C@H](Cc1ccccc1)NC(=O)[C@H](CCC(=O)O)NC(=O)[C@H](CCCCN)NC(=O)[C@H](CS)NC(=O)[C@H](C)NC(=O)[C@H](CCC(=O)O)NC(=O)[C@H](CCC(=O)O)NC(=O)[C@H](CCC(=O)O)NC(=O)[C@H](CC(C)C)NC(=O)[C@H](Cc1ccc(O)cc1)NC(=O)[C@H](CS)NC(=O)[C@@H](NC(=O)[C@@H](NC(=O)[C@H](CC(=O)O)NC(=O)[C@H](CC(N)=O)NC(=O)[C@@H](NC(=O)[C@H](Cc1ccc(O)cc1)NC(=O)[C@@H](NC(=O)CNC(=O)[C@H](CCC(=O)O)NC(=O)C(C)(C)NC(=O)[C@@H](N)Cc1c[nH]cn1)[C@@H](C)O)[C@@H](C)O)C(C)C)[C@@H](C)O)[C@@H](C)CC)C(=O)N[C@@H](CCCCN)C(=O)NCC(=O)N[C@@H](CCCCN)C(N)=O` (HELM PEPTIDE1{H.[Aib].E.G.T.Y.T.N.D.V.T.C.Y.L.E.E.E.A.C.K.E.F.I.E.W.L.I.K.G.K.[am]}$$$$V2.0) gave an EC50 of 260 pM. `CC[C@H](C)[C@H](NC(=O)[C@H](CC(C)C)NC(=O)[C@H](Cc1c[nH]c2ccccc12)NC(=O)[C@H](CCC(=O)O)NC(=O)[C@@H](NC(=O)[C@H](Cc1ccccc1)NC(=O)[C@H](CCC(=O)O)NC(=O)[C@H](CS)NC(=O)[C@H](C)NC(=O)[C@H](C)NC(=O)[C@H](CCC(=O)O)NC(=O)[C@H](CCC(=O)O)NC(=O)[C@H](CCC(=O)O)NC(=O)[C@H](CC(C)C)NC(=O)[C@H](CS)NC(=O)[C@H](CCC(=O)O)NC(=O)[C@@H](NC(=O)[C@@H](NC(=O)[C@H](CC(=O)O)NC(=O)[C@H](CC(N)=O)NC(=O)[C@@H](NC(=O)[C@H](Cc1ccc(O)cc1)NC(=O)[C@@H](NC(=O)CNC(=O)[C@H](CCC(=O)O)NC(=O)C(C)(C)NC(=O)[C@@H](N)Cc1c[nH]cn1)[C@@H](C)O)[C@@H](C)O)C(C)C)[C@@H](C)O)[C@@H](C)CC)C(=O)N[C@@H](CCCCN)C(=O)NCC(=O)N[C@@H](CCCCN)C(=O)N1CCC[C@H]1C(=O)N[C@@H](CO)C(=O)N[C@@H](CO)C(=O)NCC(=O)N[C@@H](C)C(=O)N1CCC[C@H]1C(=O)N1CCC[C@H]1C(=O)N1CCC[C@H]1C(=O)N[C@@H](CO)C(N)=O` (HELM PEPTIDE1{H.[Aib].E.G.T.Y.T.N.D.V.T.E.C.L.E.E.E.A.A.C.E.F.I.E.W.L.I.K.G.K.P.S.S.G.A.P.P.P.S.[am]}$$$$V2.0) showed an EC50 of 190 pM. Work on `CC[C@H](C)[C@H](NC(=O)[C@H](CC(C)C)NC(=O)[C@H](Cc1c[nH]c2ccccc12)NC(=O)[C@H](CS)NC(=O)[C@@H](NC(=O)[C@H](Cc1ccccc1)NC(=O)[C@H](CCC(=O)O)NC(=O)[C@H](CCCCN)NC(=O)[C@H](C)NC(=O)[C@H](C)NC(=O)[C@H](CS)NC(=O)[C@H](CCC(=O)O)NC(=O)[C@H](CCC(=O)O)NC(=O)[C@H](CC(C)C)NC(=O)[C@H](Cc1ccc(O)cc1)NC(=O)[C@H](CCC(=O)O)NC(=O)[C@@H](NC(=O)[C@@H](NC(=O)[C@H](CC(=O)O)NC(=O)[C@H](CC(N)=O)NC(=O)[C@@H](NC(=O)[C@H](Cc1ccc(O)cc1)NC(=O)[C@@H](NC(=O)CNC(=O)[C@H](CCC(=O)O)NC(=O)C(C)(C)NC(=O)[C@@H](N)Cc1c[nH]cn1)[C@@H](C)O)[C@@H](C)O)C(C)C)[C@@H](C)O)[C@@H](C)CC)C(=O)N[C@@H](CCCCN)C(=O)NCC(=O)N[C@@H](CCCCN)C(N)=O` (HELM PEPTIDE1{H.[Aib].E.G.T.Y.T.N.D.V.T.E.Y.L.E.E.C.A.A.K.E.F.I.C.W.L.I.K.G.K.[am]}$$$$V2.0) yielded an EC50 of 160 pM.
